Source: patent US5214034A, “Catechol derivatives, and preventive and remedial preparations for regressive disorders in the central nervous system containing the same” (priority 1986, dated 1993)
Where two headings read alike, the source gives them in different places.

Key:
[1] = system: NGF; assay: NGF production in the central nervous system of normal rats by intraperitoneal injection (NGF content of brain tissue, ELISA); type: in vivo, rat (Wistar male); conditions: Table 7, i.p., three times every other day; for NGF content after 48 hr.: 48 hours after final administration; for NGF content after 7 days: 7 days after final administration
Method: The derivative (A), e.g. R=Two H, R1 =H and R2 =n-propyl (hereinafter referred to as 4-n-propylcatechol), was administered to normal rats by intraperitoneal injection, and the effect was examined.
4-n-Propylcatechol was administered by intraperitoneal injection 4 times every other day in a dosage of 5 mg/kg. The rats were killed two days after the final administration. The NGF content of each parts in brain was measured. The content was compared with those of control group which was administered saline alone.
A variety of the derivative was administered three times every other day. The content of NGF in the forebrain after 48 hours and 7 days from the final administration was measured and illustrated in Table 7.
Wistar male rats (9-10-week old, 200-250 g of weight) were intraperitoneally injected with the test derivative in a volume of 0.5 ml as a saline solution, emulsion or suspension. Dose and administration times were the same as above. The rats were killed by a hard spinal blow two days after the final administration. Each parts of brain were dissected and subjected to the following treatment under ice cooling.
Each parts of brain were weighed and homogenized for 30 strokes by a Dounce type homogenizer in a homogenization buffer (0.1 M Tris-HCl, containing 2% bovine serum albumin fraction V, 2% gelatin, 1.0 M NaCl, 0.02% NaN3, 2 mM EDTA and 2.6 kiu/ml of aprotinin, pH 7.6) at a concentration of 10% (W/V) (only septum 5% (W/V)). Each homogenate was centrifuged at 100,000 xg for 10 minutes, and 50 μl of supernatant was added with the same amount of a dilution buffer (0.1 M Tris-HCl containing 2% bovine serum albumin fraction V, 0.05% NaN3 and 20 mM CaCl2, pH 7.6). Determination was conducted in accordance with a method of S. Furukawa et al. by using a high sensitivity ELISA system on 8-NGF which was described in J. Neurochem., 40, 734-744 (1983). Lower limit of determination is 0.25 pg/ml. Data are indicated as a mean value ±SE on the NGF content of tissue (pg/mg wet tissue) of five rats.

[2] = Acute toxicity (LD50); conditions: mouse, in vivo
Method: The catechol derivative having normal type saturated lower alkyl groups on the ring was administered by intravenous injection (i.v.), intraperitoneal injection (i.p.) or oral route (p.o.) to male ddy mice of 4-week old. The LD50 values (mg/kg) were measured by an ordinary method.

[3] = system: production and secretion of NGF in brain astroglial cells; assay: Promoting activity for the production and secretion of NGF in brain astroglial cells of mouse (ELISA)
Method: The experiment was performed by inducing the astroglial cells from mouse forebrain to culture system according to the procedures of S. Furukawa et al. which is described in Biochem. Biophys. Res. Commun., 136, 57-63 (1986).
That is, forebrains of 8-day old mice were dissected out and cut into small pieces. […] Cells and cell clamps were recovered by centrifugation at 200 xg for 5 minutes. They were cultured in Dulbecco modified Eagle's medium (a product of Gibco Co. hereinafter abbreviated as DMEM) containing 10% of fetal calf serum, […] of penicillin, and 50 μg/ml of streptomycin, for 10 to 14 days with medium changes every 3 days. After completing confluency, the cells were dissociated by trypsin treatment and recultured in new culture flasks. This procedure was repeated further twice and more. […] The cells will hereinafter be referred to as astroglial cells.
Astroglial cells were innoculated in 24-well plates having a well surface area of 2.1 cm^2 (a product of Falcon Co.) at a cell density of about 3×10^4 cells/well and cultured for 3 days in DMEM . medium supplemented with 10% of fetal calf serum. After completing confluency about 10^7 cells/well), the medium was changed to DMEM medium (0.5 ml/well) supplemented with 0.5% of bovine serum albumin ((fraction V) and cultured for 3 days. The culture was further continued with medium changes every 3 days. After cells were practically synchronized in the quiscent stage, the medium was changed to 0.5 ml of the medium supplemented with 0.5% of bovine serum albumin and containing a prescribed concentration of test sample as illustrated in Tables. […] Data are expressed as fold increase in NGF content over that in the absence of the test sample. […] Data are presented as means ±SE of four determinations.

[4] = system: production and secretion of NGF on L-M cells; assay: Promoting action for the production and secretion of NGF on L-M cells of mouse (ELISA); type: cell-based; conditions: Mus musculus
Description: Catecholamines have also been found in a relatively high concentration to accelerate these functions without being mediated by adrenergic receptors [Y. Furukawa et al., J. Biol. Chem., 261, 6039-6047 (1986)].
The compound having a high activity in Table 1, that is, the catechol derivative having a n-alkyl group in the 3 or 4 position on the ring has been observed an acute cell toxicity in higher concentrations. The toxicity was considered the result of two hydroxyl groups in the catechol structure. Then the hydroxyl groups were esterified or etherified and the resulting derivative was examined the effect on the activity for the production and secretion of NGF.
The experiment was performed according to the procedures of Y. Furukawa et al. which is described in J. Bis Chem., 261, 6039-6047 (1986).
The medium was cultured for 3 days at a temperature of 37° C. After completing the confluency (about 10^6 cells/well), the medium was changed to Medium 199 (0.5 ml/well) containing 0.5% bovine serum albumin (Fraction V, a product of Armour Co.). The sample of the derivative is contained in the medium at a prescribed concentration as illustrated in the Tables.

[5] = ip, intraperitoneal injection, read-out: LD50 i.p.
[6] = intravenous injection, read-out: LD50 i.v.
[7] = oral route, read-out: LD50 p.o.
[8] = 24 h, read-out: Ratio of NGF increase, Table 3, 0.10 mM, 24 hours, mean ± SE of four determinations
[9] = 24 h, read-out: Ratio of NGF increase, Table 3, 0.25 mM, 24 hours, mean ± SE of four determinations
[10] = 24 h, read-out: Ratio of NGF increase
[11] = 24 h, read-out: Ratio of NGF increase, 24-hr culture
[12] = 48 h, read-out: Ratio of NGF increase, 48-hr culture

| Structure (SMILES) | NGF content after 48 hr. [1] | NGF content after 7 days [1] | LD50 [2, 5] [mg/kg] | LD50 [2, 6] [mg/kg] | LD50 [2, 7] [mg/kg] | fold induction at 100 µM [3, 8] | fold induction at 250 µM [3, 9] | fold induction at 30 µM [4, 10] | fold induction at 100 µM [4, 10] | LD50 ([2]; ip, read-out: LD50 i.p.) [mg/kg] | LD50 ([2]; iv, read-out: LD50 i.v.) [mg/kg] | LD50 ([2]; po, read-out: LD50 p.o.) [mg/kg] | fold induction at 100 µM ([3]; 24 h, read-out: Ratio of NGF increase, 24-hr culture, Table 4, 0.10 mM, 24-hr culture) | fold induction at 250 µM ([3]; 24 h, read-out: Ratio of NGF increase, 24-hr culture, Table 4, 0.25 mM, 24-hr culture) | fold induction at 100 µM ([3]; 48 h, read-out: Ratio of NGF increase, 48-hr culture, Table 4, 0.10 mM, 48-hr culture) | fold induction at 250 µM ([3]; 48 h, read-out: Ratio of NGF increase, 48-hr culture, Table 4, 0.25 mM, 48-hr culture) | fold induction at 30 µM [4, 11] | fold induction at 150 µM [4, 11] | fold induction at 30 µM [4, 12] | fold induction at 150 µM [4, 12] |
| --- | --- | --- | --- | --- | --- | --- | --- | --- | --- | --- | --- | --- | --- | --- | --- | --- | --- | --- | --- | --- |
| CCCc1ccc2c(c1)OC(C)(C)O2 [R = --C(CH3)2 --, R1 = H, R2 = n-Propyl, 5-n-Propyl-2,2-dimethyl-1,3-benzodioxol] | 1.15 ± 0.18 pg/mg wet tissue of frontal co | 1.51 ± 0.49 pg/mg wet tissue of frontal co | > 1500 | > 500 | > 3500 |  |  |  |  |  |  |  |  |  |  |  |  |  |  |  |
| CCCc1ccc2oc(=O)c(=O)oc2c1 [R = --CO.CO--, R1 = H, R2 = n-Propyl, 6-n-propyl-1,4-benzodioxine-2,3-dione] | 1.54 ± 0.20 pg/mg wet tissue of frontal co | 2.02 ± 0.47 pg/mg wet tissue of frontal co | > 1250 | > 250 | > 3000 |  |  |  |  |  |  |  |  |  |  |  |  |  |  |  |
| CCc1ccc(O)c(O)c1 [R = Two H, R1 = H, R2 = Ethyl, 4-ethylcatechol] | 1.96 ± 0.42 pg/mg wet tissue of frontal co | 1.73 ± 0.39 pg/mg wet tissue of frontal co | > 300 | > 75 | > 1000 | 55.2 ± 3.24 | 64.7 ± 4.26 | 10 ± 0.97 | 12.1 ± 1.09 |  |  |  |  |  |  |  |  |  |  |  |
| CCCc1cccc(O)c1O [R = Two H, R1 = n-Propyl, R2 = H] | 2.03 ± 0.37 pg/mg wet tissue of frontal co | 2.00 ± 0.43 pg/mg wet tissue of frontal co |  |  |  | 72.9 ± 7.09 | 97 ± 9.24 | 9.81 ± 0.92 | 16.3 ± 2.04 | > 500 | > 150 | > 1500 |  |  |  |  |  |  |  |  |
| Cc1ccc(O)c(O)c1 [R = Two H, R1 = H, R2 = Methyl, 4-Methylcatechol] | 2.26 ± 0.24 pg/mg wet tissue of frontal co | 1.64 ± 0.46 pg/mg wet tissue of frontal co | > 200 | > 50 | > 500 | 80.8 ± 4.21 | 4.89 ± 1.37 | 8.91 ± 0.43 | 2.36 ± 1.9 |  |  |  | 77.3 ± 9.21 | 6.59 ± 1.34 | 106 ± 7.61 | 2.47 ± 1.22 | 8.77 ± 0.66 | 2.87 ± 0.54 | 9.21 ± 0.69 | 2.49 ± 0.88 |
| CCCCc1ccc(O)c(O)c1 [R = Two H, R1 = H, R2 = n-Butyl, 4-n-butylcatechol] | 1.88 ± 0.46 pg/mg wet tissue of frontal co | 2.25 ± 0.33 pg/mg wet tissue of frontal co | > 500 | > 150 | > 1500 | 59.7 ± 3 | 88.3 ± 2.47 | 8.21 ± 1.1 | 14 ± 1.33 |  |  |  |  |  |  |  |  |  |  |  |
| CCCc1ccc(OC(C)=O)c(OC(C)=O)c1 [R = Two acetyl, R1 = H, R2 = n-Propyl, 1,2-diacetoxy-4-propylbenzene] | 1.71 ± 0.28 pg/mg wet tissue of frontal co | 2.16 ± 0.46 pg/mg wet tissue of frontal co | > 750 | > 250 | > 2500 |  |  |  |  |  |  |  |  |  |  |  |  |  |  |  |
